Literature values as cited in patent US20260097052A1, “NOVEL ORAL CANNABINOID FORMULATIONS” (Esolate Pharmaceuticals Ltd, priority 2023, published 2026).

Details: humans

In the case of `C=C(C)[C@@H]1CCC(C)=C[C@H]1c1c(O)cc(CCCCC)cc1O` [CBD, cannabidiol], the Oral bioavailability is listed as “approximately 6%”.
